Measured values reported in US20230036854A1, “HETEROCYCLIC SPIRO-COMPOUNDS AS AM2 RECEPTOR INHIBITORS” (THE UNIVERSITY OF SHEFFIELD, priority 2018, published 2023).

The compounds below were run against T1, AM2 receptor (1321N1 cells transfected with CALCRL+RAMP3) (Homo sapiens, UniProt O60896+Q16602) (assay: AM2 receptor inhibition, LANCE cAMP agonist-antagonist competition assay). Conditions: inhibition of AM induced cAMP activation, read-out: AM2 D2 protocol: pIC50 (converted).
T1 construct: host or cells: 1321N1 cells
T1 sequence (Q16602 23-461): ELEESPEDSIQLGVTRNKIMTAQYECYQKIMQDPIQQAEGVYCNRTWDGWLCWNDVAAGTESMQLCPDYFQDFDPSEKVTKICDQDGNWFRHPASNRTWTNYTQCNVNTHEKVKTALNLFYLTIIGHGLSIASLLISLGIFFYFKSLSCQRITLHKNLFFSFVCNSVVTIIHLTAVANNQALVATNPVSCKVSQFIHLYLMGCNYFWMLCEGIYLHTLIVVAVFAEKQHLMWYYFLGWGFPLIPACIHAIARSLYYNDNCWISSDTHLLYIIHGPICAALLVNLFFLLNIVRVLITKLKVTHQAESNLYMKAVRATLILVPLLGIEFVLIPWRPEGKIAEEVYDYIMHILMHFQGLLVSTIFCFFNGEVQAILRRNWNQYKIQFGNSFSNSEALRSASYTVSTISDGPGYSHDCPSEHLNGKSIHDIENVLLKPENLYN
T1 sequence (O60896 24-148): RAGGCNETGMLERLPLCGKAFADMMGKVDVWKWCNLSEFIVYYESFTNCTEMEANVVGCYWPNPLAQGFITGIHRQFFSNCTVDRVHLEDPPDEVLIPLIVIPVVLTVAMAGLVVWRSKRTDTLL
Type: cell-based
How it was run: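 cAMP was quantified by LANCE TR-FRET after an EC50 challenge with adrenomedullin (15 min, room temperature) in CALCRL+RAMP3-transfected 1321N1 cells (2500/well) that had first been exposed to compound for 30 min. Buffer was pH 7.4 HBSS with HEPES and BSA. Forskolin defined 100% stimulation and vehicle 0%.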

| Structure (SMILES) | IC50 [nM] |
| --- | --- |
| CCC1(C(=O)N(CC(=O)Nc2ccc3c(c2)C[C@@]2(C3)C(=O)Nc3ncccc32)Cc2ccccc2CNC)CCN(C(=O)c2cc(C)n[nH]2)CC1 [Example 71, (R)-4-Ethyl-1-(3-methyl-1H-pyrazole-5-carbonyl)-N-(2-((methylamino)methyl)benzyl)-N-(2-oxo-2-((2′-oxo-1,1′,2′,3-tetrahydrospiro[indene-2,3′-pyrrolo[2,3-b]pyridin]-5-yl)amino)ethyl)piperidine-4-carboxamide] | 8.51 |
| CNCc1ccccc1CN(CC(=O)Nc1ccc2c(c1)C[C@@]1(C2)C(=O)Nc2ncccc21)C(=O)C1(C)CCN(C(=O)CC2CC2)CC1 [Example 27, (R)-1-(2-Cyclopropylacetyl)-4-methyl-N-(2-((methylamino)methyl)benzyl)-N-(2-oxo-2-((2′-oxo-1,1′,2′,3-tetrahydrospiro[indene-2,3′-pyrrolo[2,3-b]pyridin]-5-yl)amino)ethyl)piperidine-4-carboxamide] | 95.5 |
| CNCc1ccccc1CN(CC(=O)Nc1ccc2c(c1)C[C@@]1(C2)C(=O)Nc2ncccc21)C(=O)C1(CC(C)C)CCN(C(C)=O)CC1 [Example 125] | 21.4 |
| CNCc1ccccc1CN(CC(=O)Nc1ccc2c(c1)CC1(C2)C(=O)Nc2ncccc21)C(=O)C1(C)CCN(C(=O)c2ccccc2)CC1 (stereo not shown) [Example 4, 1-Benzoyl-4-methyl-N-(2-((methylamino)methyl)benzyl)-N-(2-oxo-2-((2′-oxo-1,1′,2′,3-tetrahydrospiro[indene-2,3′-pyrrolo[2,3-b]pyridin]-5-yl)amino)ethyl)piperidine-4-carboxamide] | 2.19 |
| CNCc1ccccc1CN(CC(=O)Nc1ccc2c(c1)C[C@@]1(C2)C(=O)Nc2ncccc21)C(=O)C1(C)CCN(C(=O)c2ccccc2C(=O)O)CC1 [Example 34, (R)-2-(4-Methyl-4-((2-((methylamino)methyl)benzyl)(2-oxo-2-((2′-oxo-1,1′,2′,3-tetrahydrospiro[indene-2,3′-pyrrolo[2,3-b]pyridin]-5-yl)amino)ethyl)carbamoyl)piperidine-1-carbonyl)benzoic Acid] | 70.8 |
| CNCc1ccccc1CN(CC(=O)Nc1ccc2c(c1)C[C@@]1(C2)C(=O)Nc2ncccc21)C(=O)C1(C)CCN(c2ccncn2)CC1 [Example 61] | 2.14 |
| CCC1(C(=O)N(CC(=O)Nc2ccc3c(c2)C[C@@]2(C3)C(=O)Nc3ncccc32)Cc2ccccc2CNC)CCN(C(=O)[C@@H](C)NC)CC1 [Example 77, 4-Ethyl-N-(2-((methylamino)methyl)benzyl)-1-((R)-2-(methylamino)propanoyl)-N-(2-oxo-2-(((R)-2′-oxo-1,1′,2′,3-tetrahydrospiro[indene-2,3′-pyrrolo[2,3-b]pyridin]-5-yl)amino)ethyl)piperidine-4-carboxamide] | 24 |
| CCC1(C(=O)N(CC(=O)Nc2ccc3c(c2)C[C@@]2(C3)C(=O)Nc3ncccc32)Cc2ccccc2CNC)CCN(C(=O)[C@@H]2COCCN2)CC1 [Example 93, 4-Ethyl-N-(2-((methylamino)methyl)benzyl)-1-((S)-morpholine-3-carbonyl)-N-(2-oxo-2-(((R)-2′-oxo-1,1′,2′,3-tetrahydrospiro[indene-2,3′-pyrrolo[2,3-b]pyridin]-5-yl)amino)ethyl)piperidine-4-carboxamide] | 18.6 |
| CNCc1ccccc1CN(CC(=O)Nc1ccc2c(c1)C[C@@]1(C2)C(=O)Nc2ncccc21)C(=O)C1(C)CCN(C(=O)CN2CCN(C(C)=O)CC2)CC1 [Example 32, (R)-1-(2-(4-Acetylpiperazin-1-yl)acetyl)-4-methyl-N-(2-((methylamino)methyl)benzyl)-N-(2-oxo-2-((2′-oxo-1,1′,2′,3-tetrahydrospiro[indene-2,3′-pyrrolo[2,3-b]pyridin]-5-yl)amino)ethyl)piperidine-4-carboxamide] | 2.34 |
| CCC1(C(=O)N(CC(=O)Nc2ccc3c(c2)C[C@@]2(C3)C(=O)Nc3ncccc32)Cc2ccccc2CNC)CCN(C(=O)c2ccn(C)n2)CC1 [Example 70, (R)-4-Ethyl-1-(1-methyl-1H-pyrazole-3-carbonyl)-N-(2-((methylamino)methyl)benzyl)-N-(2-oxo-2-((2′-oxo-1,1′,2′,3-tetrahydrospiro[indene-2,3′-pyrrolo[2,3-b]pyridin]-5-yl)amino)ethyl)piperidine-4-carboxamide] | 2.24 |
| CCC1(C(=O)N(CC(=O)Nc2ccc3c(c2)C[C@@]2(C3)C(=O)Nc3ncccc32)Cc2ccccc2CNC)CCN(C(=O)OC(C)C)CC1 [Example 114, (R)-Isopropyl 4-ethyl-4-((2-((methylamino)methyl)benzyl)(2-oxo-2-((2′-oxo-1,1′,2′,3-tetrahydrospiro[indene-2,3′-pyrrolo[2,3-b]pyridin]-5-yl)amino)ethyl)carbamoyl)piperidine-1-carboxylate] | 69.2 |
| CNCc1ccccc1CN(CC(=O)Nc1ccc2c(c1)CC1(C2)C(=O)Nc2ncccc21)C(=O)C1(C)CCN(C(=O)CN)CC1 (stereo not shown) [Example 22, 1-(2-Aminoacetyl)-4-methyl-N-(2-((methylamino)methyl)benzyl)-N-(2-oxo-2-((2′-oxo-1,1′,2′,3-tetrahydrospiro[indene-2,3′-pyrrolo[2,3-b]pyridin]-5-yl)amino)ethyl)piperidine-4-carboxamide] | 0.631 |
| CCC1(C(=O)N(CC(=O)Nc2ccc3c(c2)C[C@@]2(C3)C(=O)Nc3ncccc32)Cc2ccccc2CNC)CCNCC1 [Example 67, (R)-4-Ethyl-N-(2-((methylamino)methyl)benzyl)-N-(2-oxo-2-((2′-oxo-1,1′,2′,3-tetrahydrospiro[indene-2,3′-pyrrolo[2,3-b]pyridin]-5-yl)amino)ethyl)piperidine-4-carboxamide] | 0.575 |
| CCC1(C(=O)N(CC(=O)Nc2ccc3c(c2)C[C@@]2(C3)C(=O)Nc3ncccc32)Cc2ccccc2CNC)CCN(C(=O)[C@H]2COCCN2)CC1 [Example 83, 4-Ethyl-N-(2-((methylamino)methyl)benzyl)-1-((R)-morpholine-3-carbonyl)-N-(2-oxo-2-(((R)-2′-oxo-1,1′,2′,3-tetrahydrospiro[indene-2,3′-pyrrolo[2,3-b]pyridin]-5-yl)amino)ethyl)piperidine-4-carboxamide] | 56.2 |

Further lines, results first:

| IC50 [nM] | Structure (SMILES) |
| --- | --- |
| 112 | CCC1(C(=O)N(CC(=O)Nc2ccc3c(c2)C[C@@]2(C3)C(=O)Nc3ncccc32)Cc2ccccc2CNC)CCN(C(=O)c2cccc(C(F)(F)F)n2)CC1 [Example 78, (R)-4-Ethyl-N-(2-((methylamino)methyl)benzyl)-N-(2-oxo-2-((2′-oxo-1,1′,2′,3-tetrahydrospiro[indene-2,3′-pyrrolo[2,3-b]pyridin]-5-yl)amino)ethyl)-1-(6-(trifluoromethyl)picolinoyl)piperidine-4-carboxamide] |
| 4.27 | CCC1(C(=O)N(CC(=O)Nc2ccc3c(c2)C[C@@]2(C3)C(=O)Nc3ncccc32)Cc2ccccc2CNC)CCN(C(=O)NCC(F)(F)F)CC1 [Example 113, (R)-4-Ethyl-N4-(2-((methylamino)methyl)benzyl)-N4-(2-oxo-2-((2′-oxo-1,1′,2′,3-tetrahydrospiro[indene-2,3′-pyrrolo[2,3-b]pyridin]-5-yl)amino)ethyl)-N1-(2,2,2-trifluoroethyl)piperidine-1,4-dicarboxamide] |
| 1.38 | CNCc1ccccc1CN(CC(=O)Nc1ccc2c(c1)C[C@@]1(C2)C(=O)Nc2ncccc21)C(=O)C1(C)CCN(C(=O)C(C)NC)CC1 (stereo partly drawn) [Example 23, 4-Methyl-N-(2-((methylamino)methyl)benzyl)-1-(2-(methylamino)propanoyl)-N-(2-oxo-2-(((R)-2′-oxo-1,1′,2′,3-tetrahydrospiro[indene-2,3′-pyrrolo[2,3-b]pyridin]-5-yl)amino)ethyl)piperidine-4-carboxamide] |
| 17.8 | CNCc1ccccc1CN(CC(=O)Nc1ccc2c(c1)C[C@@]1(C2)C(=O)Nc2ncccc21)C(=O)C1(C)CCN(C(=O)c2ccc(N)cn2)CC1 [Example 29, (R)-1-(5-Aminopicolinoyl)-4-methyl-N-(2-((methylamino)methyl)benzyl)-N-(2-oxo-2-((2′-oxo-1,1′,2′,3-tetrahydrospiro[indene-2,3′-pyrrolo[2,3-b]pyridin]-5-yl)amino)ethyl)piperidine-4-carboxamide] |
| 24.5 | CNCc1ccccc1CN(CC(=O)Nc1ccc2c(c1)C[C@@]1(C2)C(=O)Nc2ncccc21)C(=O)C1(OC)CCN(C(C)=O)CC1 [Example 127, 1-Acetyl-4-methoxy-N-[[2-(methylaminomethyl)phenyl]methyl]-N-[2-oxo-2-[[(3R)-2-oxospiro[1H-pyrrolo[2,3-b]pyridine-3,2′-indane]-5′-yl]amino]ethyl]piperidine-4-carboxamide] |
| 14.1 | CNCc1ccccc1CN(CC(=O)Nc1ccc2c(c1)C[C@@]1(C2)C(=O)Nc2ncccc21)C(=O)C1(C)CCN(C(=O)N(C)C)CC1 [Example 53, (R)—N1,N1,4-Trimethyl-N4-(2-((methylamino)methyl)benzyl)-N4-(2-oxo-2-((2′-oxo-1,1′,2′,3-tetrahydrospiro[indene-2,3′-pyrrolo[2,3-b]pyridin]-5-yl)amino)ethyl)piperidine-1,4-dicarboxamide] |
| 9.12 | CNCc1ccccc1CN(CC(=O)Nc1ccc2c(c1)C[C@@]1(C2)C(=O)Nc2ncccc21)C(=O)C1(C)CCN(C(=O)C2CCN(C(C)=O)CC2)CC1 [Example 12, (R)-1-(1-Acetylpiperidine-4-carbonyl)-4-methyl-N-(2-((methylamino)methyl)benzyl)-N-(2-oxo-2-((2′-oxo-1,1′,2′,3-tetrahydrospiro[indene-2,3′-pyrrolo[2,3-b]pyridin]-5-yl)amino)ethyl)piperidine-4-carboxamide] |
| 4.07 | CCC1(C(=O)N(CC(=O)Nc2ccc3c(c2)C[C@@]2(C3)C(=O)Nc3ncccc32)Cc2ccccc2CNC)CCN(C(=O)NC)CC1 [Example 100] |
